# Assay results: patent publication EP4702979A1, “USE OF COMPOUND IN PREVENTION OR TREATMENT OF RADIATION-INDUCED BRAIN INJURY” (Guangzhou Cellprotek Pharmaceutical Co., Ltd, priority 2023, dated 2024)
# Read-outs that look alike come from different tables or passages of the source.
# Experiments:
# [1] = system: gamma knife irradiation induced focal radiation-induced brain injury; details: MRI 8 weeks after 50 Gy gamma ray radiation, Mean±SEM, n=5, RBI+Saline model 15.28 ± 0.98, P<0.05 vs model
# Description: (§1) Table 1. Animal grouping and treatment methods
# (§2) The model constructing method for focal radiation-induced brain injury caused by gamma ray radiation was modified based on reported literature. After anesthesia of mouse by intraperitoneal injection of 0.1% pentobarbital sodium solution, the body was fixed on a customized platform, and the mouse skull was scanned by X-ray computed tomography scanner for imaging processing (radiation energy of 80kV, imaging range of 250mm, layer thickness and interlayer spacing of 0.625mm, pixel size of 0.49*0.49mm). The animal irradiation position and gamma knife irradiation depth were determined based on the scanning imaging results. The mouse and customized platform were placed in a stereotactic gamma ray irradiation system for irradiation, with the irradiation site in the left thalamus of the mouse. The coordinates of the irradiation center positioning point were: 2mm behind the anterior fontanelle (AP), 2mm left of the midline (L), and 2mm below the skull dura mater (dorsal ventral DV).
# [2] = system: CC1 positive oligodendrocytes; details: 60mg/kg/d YC-6 for 8 weeks; thalamus of the lesion, 8 weeks after gamma knife radiation; Mean±SEM, n=5; normal 1608.00±47.92, model 200.60±21.47; P<0.0001 vs model
# Description: as §1, §2
# [3] = system: MAG; details: 60mg/kg/d YC-6 for 8 weeks; thalamus of the lesion, 8 weeks after gamma knife radiation; Mean±SEM, n=5; normal 1.04±0.047, model 0.31±0.018; P<0.0001 vs model
# Description: as §1, §2
# [4] = system: GFAP positive astrocytes; details: 60mg/kg/d YC-6 for 8 weeks; thalamus of the lesion, 8 weeks after gamma knife radiation; Mean±SEM, n=5; normal 57.80 ± 2.69, model 558.20 ± 10.07; P<0.0001 vs model
# Description: as §1, §2
# [5] = Animal weighing in radiation-induced brain injury model; type: in vivo, C57BL/6 mice; details: full 8-week YC-6 administration, 60mg/kg/d; weighed once a week
# Protocol: as §1
# Weighing was performed once a week before and after the gamma ray radiation model construction for 8 weeks.
smiles,measurement,setting,value
"C[C@@]12CCCC1C1C[C@@H](O)[C@@]3(O)C[C@@H](O)CC[C@]3(C)C1CC2 (stereo partly drawn) [YC-6, 5α-androst-3β,5,6β-triol]",Volume of lesion,"[1]; 60mg/kg/d YC-6 for 2 weeks, then stopped for 6 weeks",12.28 ± 0.63^# mm^3
same,Volume of lesion,[1]; 60mg/kg/d YC-6 for 8 weeks,10.27 ± 1.50^# mm^3
same,Number of mature oligodendrocytes,[2],506.40±30.48 Oligodendrocytes/mm^2
same,MAG fluorescence signal intensity,[3],0.44±0.018
same,Number of astrocytes,[4],357.00 ± 10.61 Astrocytes/mm^2
same,body weight,[5],without affecting body weight
